Legend:
[1] = Simulated sustained release in a dog model; format: in vivo; conditions: sustained presentation over eight hours
Description: It has been discovered that the shape of the PK curve and not just the AUC can make a difference to efficacy. Specifically, having a plasma concentration above a threshold for several hours per day (e.g., 4-8 hours) may be more efficacious than maintaining a concentration just below that threshold for 24 hours a day. […] In this model, the drug conserved by avoiding a high single dose and high Cmax was distributed across several hours, giving a several hour period in which the plasma concentration of acamprosate was higher than the plasma concentration after administration of a single dose of the immediate release version.
In a dog study of simulated sustained release of acamprosate it was shown that through sustained release a higher residence time above a threshold can be attained than by giving the same dose all at once. Combining the results from the dog study with the implications of the reported human cases we contemplate that acamprosate delivered by a sustained release system can relieve symptoms of TD and other neuropsychiatric disorders given once or twice a day. […] Thus it appears that a total daily dose of less than one gram of sustained release acamprosate, given on a twice a day basis, or perhaps even on a once a day basis, could be adequate to treat TD in the case examples. […]

[2] = high solubility and low permeability; cited from earlier work

In the case of `CC(=O)NCCCS(=O)(=O)O` [Acamprosate, 3-(acetylamino)-1-propanesulfonic acid], the “residence time above a threshold concentration vs immediate release of the same dosage” value [1] is listed as “significantly longer residence time” and the “Biopharmaceuticals Classification System (BCS) class” value [2] is listed as “Class III”.

From patent US20160081938A1, “ACAMPROSATE FORMULATIONS, METHODS OF USING THE SAME, AND COMBINATIONS COMPRISING THE SAME” (Synchroneuron Inc., priority 2013, published 2016)
